Assay results as given in ChEMBL document CHEMBL1201862, “PubChem BioAssay data set” (2004).
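Five concentrations, 48 hours, 96-well plates. Abbreviation: GI50, concentration required for 50% inhibition of growth.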 Active and inactive are the calls of the source. No stated cut-off is given here; in the data, active = GI50 up to about 1.1 µM and inactive = higher.

Experiments:
Experiment in all cases: growth of human tumour cells (NCI), 48 h
[1] = tested on: HCC 2998
[2] = tested on: NCI-H522
[3] = tested on: NCI-H226
[4] = tested on: U-251
[5] = tested on: SW-620
[6] = tested on: SNB-75
[7] = tested on: TK-10
[8] = tested on: 786-0
[9] = tested on: HCT-15
[10] = tested on: A549
[11] = tested on: SR
[12] = tested on: UACC-257
[13] = tested on: MCF7
[14] = tested on: BT-549
[15] = tested on: HL-60
[16] = tested on: PC-3
[17] = tested on: SN12C
[18] = tested on: HT-29
[19] = tested on: NCI-H23
[20] = tested on: OVCAR-5
[21] = tested on: RPMI-8226
[22] = tested on: OVCAR-3
[23] = tested on: NCI/ADR-RES
[24] = tested on: IGROV-1
[25] = tested on: HOP-62
[26] = tested on: KM12
[27] = tested on: A498
[28] = tested on: SK-MEL-28
[29] = tested on: OVCAR-4
[30] = tested on: UACC-62
[31] = tested on: Hs-578T
[32] = tested on: MOLT-4
[33] = tested on: CAKI-1
[34] = tested on: SK-OV-3
[35] = tested on: MDA-N
[36] = tested on: MDA-MB-435
[37] = tested on: ACHN
[38] = tested on: LOX IMVI
[39] = tested on: SF-539
[40] = tested on: RXF 393
[41] = tested on: OVCAR-8
[42] = tested on: SK-MEL-5
[43] = tested on: T47D
[44] = tested on: SNB-19
[45] = tested on: SF-295
[46] = tested on: SK-MEL-2
[47] = tested on: M14
[48] = tested on: UO-31
[49] = tested on: Malme-3M
[50] = tested on: HOP-92
[51] = tested on: SF-268
[52] = tested on: CCRF-CEM
[53] = tested on: HCT-116
[54] = tested on: MDA-MB-231
[55] = tested on: NCI-H460
[56] = tested on: EKVX
[57] = tested on: COLO 205
[58] = tested on: K562

Structure (SMILES): COC(=O)C(=O)C(C(=O)OC)C(=O)C(=O)Nc1ccccc1C(N)=O (stereo unspecified)
- GI50 [1]: > 100 µM (inactive)
- GI50 [2]: > 100 µM (inactive)
- GI50 [3]: > 100 µM (inactive)
- GI50 [4]: > 100 µM (inactive)
- GI50 [5]: > 100 µM (inactive)
- GI50 [6]: > 100 µM (inactive)
- GI50 [7]: > 100 µM (inactive)
- GI50 [8]: > 100 µM (inactive)
- GI50 [9]: > 100 µM
- GI50 [10]: > 100 µM (inactive)
- GI50 [11]: > 100 µM (inactive)
- GI50 [12]: > 100 µM (inactive)
- GI50 [13]: > 100 µM (inactive)
- GI50 [14]: > 100 µM (inactive)
- GI50 [15]: > 100 µM (inactive)
- GI50 [16]: > 100 µM (inactive)
- GI50 [17]: > 100 µM (inactive)
- GI50 [18]: > 100 µM (inactive)
- GI50 [19]: > 100 µM (inactive)
- GI50 [20]: > 100 µM (inactive)
- GI50 [21]: > 100 µM (inactive)
- GI50 [22]: > 100 µM (inactive)
- GI50 [23]: > 100 µM (inactive)
- GI50 [24]: > 100 µM (inactive)
- GI50 [25]: > 100 µM (inactive)
- GI50 [26]: > 100 µM (inactive)
- GI50 [27]: > 100 µM (inactive)
- GI50 [28]: > 100 µM (inactive)
- GI50 [29]: 66.5 µM (inactive)
- GI50 [30]: > 100 µM (inactive)
- GI50 [31]: > 100 µM (inactive)
- GI50 [32]: > 100 µM (inactive)
- GI50 [33]: > 100 µM (inactive)
- GI50 [34]: > 100 µM (inactive)
- GI50 [35]: > 100 µM (inactive)
- GI50 [36]: > 100 µM (inactive)
- GI50 [37]: > 100 µM (inactive)
- GI50 [38]: > 100 µM (inactive)
- GI50 [39]: > 100 µM (inactive)
- GI50 [40]: > 100 µM (inactive)
- GI50 [41]: > 100 µM (inactive)
- GI50 [42]: > 100 µM (inactive)
- GI50 [43]: > 100 µM (inactive)
- GI50 [44]: > 100 µM (inactive)
- GI50 [45]: > 100 µM (inactive)
- GI50 [46]: > 100 µM (inactive)
- GI50 [47]: > 100 µM (inactive)
- GI50 [48]: > 100 µM (inactive)
- GI50 [49]: > 100 µM (inactive)
- GI50 [50]: > 100 µM (inactive)
- GI50 [51]: > 100 µM (inactive)
- GI50 [52]: > 100 µM (inactive)
- GI50 [53]: > 100 µM (inactive)
- GI50 [54]: > 100 µM (inactive)
- GI50 [55]: > 10 µM (inactive)
- GI50 [56]: > 100 µM (inactive)

Structure (SMILES): CC1Cn2c(nc3ccccc32)NC1=O (stereo unspecified)
- GI50 [2]: > 100 µM (inactive)
- GI50 [3]: > 100 µM (inactive)
- GI50 [4]: > 100 µM (inactive)
- GI50 [5]: > 100 µM (inactive)
- GI50 [6]: > 100 µM (inactive)
- GI50 [7]: > 100 µM (inactive)
- GI50 [57]: > 100 µM (inactive)
- GI50 [8]: > 100 µM (inactive)
- GI50 [9]: > 100 µM
- GI50 [10]: > 100 µM (inactive)
- GI50 [11]: > 100 µM (inactive)
- GI50 [12]: > 100 µM (inactive)
- GI50 [13]: > 100 µM (inactive)
- GI50 [14]: > 100 µM (inactive)
- GI50 [15]: > 100 µM (inactive)
- GI50 [16]: > 100 µM (inactive)
- GI50 [18]: > 100 µM (inactive)
- GI50 [19]: > 100 µM (inactive)
- GI50 [20]: > 100 µM (inactive)
- GI50 [21]: > 100 µM (inactive)
- GI50 [22]: > 100 µM (inactive)
- GI50 [23]: > 100 µM (inactive)
- GI50 [24]: > 100 µM (inactive)
- GI50 [25]: > 100 µM (inactive)
- GI50 [58]: > 100 µM (inactive)
- GI50 [26]: > 100 µM (inactive)
- GI50 [27]: > 100 µM (inactive)
- GI50 [29]: > 100 µM (inactive)
- GI50 [30]: > 100 µM (inactive)
- GI50 [31]: > 100 µM (inactive)
- GI50 [32]: > 100 µM (inactive)
- GI50 [33]: > 100 µM (inactive)
- GI50 [34]: > 100 µM (inactive)
- GI50 [35]: > 100 µM (inactive)
- GI50 [36]: > 100 µM (inactive)
- GI50 [37]: > 100 µM (inactive)
- GI50 [38]: > 100 µM (inactive)
- GI50 [39]: > 100 µM (inactive)
- GI50 [40]: > 100 µM (inactive)
- GI50 [41]: > 100 µM (inactive)
- GI50 [42]: > 100 µM (inactive)
- GI50 [43]: > 100 µM (inactive)
- GI50 [44]: > 100 µM (inactive)
- GI50 [45]: > 100 µM (inactive)
- GI50 [46]: > 100 µM (inactive)
- GI50 [47]: > 100 µM (inactive)
- GI50 [48]: > 100 µM (inactive)
- GI50 [49]: 58.2 µM (inactive)
- GI50 [50]: > 100 µM (inactive)
- GI50 [51]: > 100 µM (inactive)
- GI50 [52]: > 100 µM (inactive)
- GI50 [53]: > 100 µM (inactive)
- GI50 [54]: > 100 µM (inactive)
- GI50 [55]: > 100 µM (inactive)
- GI50 [56]: > 100 µM (inactive)
